Data: PMC6407204, “Oral administration of the cannabigerol derivative VCE-003.2 promotes subventricular zone neurogenesis and protects against mutant huntingtin-induced neurodegeneration” (Translational Neurodegeneration, 2019)
Read-outs that look alike come from different tables or passages of the source.

Experiments:
[1] = test system: C-reactive protein and pentraxins 2, 3; test: Plasma biomarkers, cytokine and adipokine proteome arrays; type: in vivo, C57BL/6 N mice; settings: pooled plasma, oral treatment, htt94Q mice
Description: Plasma samples from wild-type and mutant huntingtin-expressing C57BL/6 N mice were pooled (n = 6 animals per group) and analyzed for cytokine and adipokine expression. The Proteome Profiler Mouse XL Cytokine Array and the Proteome Profiler Mouse Adipokine Array (R&D Systems) were used according to the manufacturer’s protocols to obtain protein expression profiles using 100 μl plasma samples. Spot density was determined using Quick Spots image analysis software (R&D Systems).
Supplementary file 40035_2019_148_MOESM5_ESM.pdf: Additional file 5: Effect of oral VCE-003.2 on plasmatic biomarkers. Plasma samples from the indicated groups of animals (n = 6) were pooled and subjected to mouse cytokine array (ARY028; R&D Systems) and mouse adipokine array (ARY013; R&D Systems) analysis. The relative expression of the indicated biomarkers is shown. (PDF 338 kb)

[2] = Pharmacokinetics in rats, plasma and brain by LC-MS/MS; type: in vivo, Sprague Dawley rats; settings: rat; for concentration at 24 h: brain at 24 h; for AUC(0-t) / Cmax / Tmax: plasma; for bioavailability: oral 50 mg/kg vs i.v. 10 mg/kg, dose-corrected AUCt ratio
Description: Six-week old male Sprague Dawley rats (Janvier Labs, France) were located in the rodent area of Eurofins ADME Bioanalyses (Vergèze, France) and housed under standard conditions (12-h light/dark cycle) in groups with access to food and water ad libitum. Each animal was identified by an ear tag and examined for general health and welfare. Process, treatment and euthanasia were conducted according to the current procedures in use at Eurofins ADME Bioanalyses. Animals were treated with a single intravenous bolus of VCE-003.2 (10 mg/Kg in DMSO) or with oral VCE-003.2 (50 mg/Kg in sesame oil). At the prescribed times, blood (0.5 ml) was collected using a capillary tube and plasma frozen at − 20 °C until analysis. After 24 h, the animals were anesthetized and perfused with 20 mL of saline solution directly into the heart to extract the maximal blood sample from the brain. Plasma samples (100 μl) were mixed with 300 μl of acetonitrile and after protein precipitation, analysis of VCE-003.2 content was performed using LC-MS/MS (3 animals per each time point). For brain samples, the tissues were homogenized with an Ultra-turrax® using UHQ water (1/1, w/w). 100 μl of each homogenate was mixed with 300 μl of acetonitrile and the mixture centrifuged for 5 min at 25,000 g. Brain homogenate supernatants were directly measured by LC-MS/MS. Previous studies have shown that there are not significant differences between mice and rats in the main pharmacokinetic parameters of different cannabinoids, including CBG [18]. As the dose used here was different between i.v. and oral routes of administration, bioavailability was calculated taking into account the dose as follows: [AUCt (oral)/dose (oral)]/[AUCt(i.v.)/dose(i.v.)].

[3] = test system: P19 cells; test: P19 neurosphere formation assay; type: cell-based, mouse; settings: P19 cells cultured 24 h
Description: All reagents, unless indicated, were from Sigma-Aldrich (St. Louis, MO, USA). The synthesis and structure of VCE-003.2 were previously described. Mouse embryonic teratocarcinoma P19 were cultured in high-glucose DMEM (Invitrogen) supplemented with 10% fetal bovine serum and 1% penicillin/streptomycin. P19 cells were plated in 24-well plates and transfected with Lipofectamine 2000 reagent according to the manufacture’s protocol (Invitrogen). Twenty-four hours post transfection, cells were collected for RNA extraction or luciferase assay determinations. […] Twenty-four hours later the mean neurosphere size was quantified. […]
Fig. 2 VCE-003.2 exerts a pro-neurogenic effect in vitro. a-b Mouse embryonic stem cells (R1 line) were treated with Vehicle, VCE-003.2 (500 nM) during neural differentiation for 21 days. Representative immunofluorescence images and quantification of CTIP2- and doublecortin-positive cells is shown (n = 3). c Luciferase reporter assay of the A4-MARS sequence of the CTIP2 locus was performed 24 h after P19 cell transfection under neuronal differentiation conditions and subject to pharmacological regulation as above. d P19 neurosphere formation assay was performed by culturing the cells for 24 h in the presence of Vehicle or VCE-003.2. […]

[4] = test system: S. typhimurium TA98; test: AMES reverse mutation assay, TA98; type: cell-based
Description: (§1) Supplementary file 40035_2019_148_MOESM4_ESM.pdf: Additional file 4: AMES Data Summary. AMES Experimental Procedure. Approximately ten million bacteria are exposed in triplicate to VCE-003-.2 (7.8, 15.6, 31.3, 62.5, 125 and 250 μg/ml), a negative control (vehicle) and a positive control for 90 min in medium containing a low concentration of histidine (sufficient for about 2 doublings). The cultures were then diluted into indicator medium lacking histidine and dispensed into 48 wells of a 384 well plate (micro-plate format, MPF). The plate was incubated for 48 h at 37 °C, and the number of wells showing growth were counted and compared to the vehicle control. An increase in the number of colonies of at least two-fold over baseline (mean + SD of the vehicle control) and a dose response indicates a positive response. […] Where indicated, S9 fraction from the livers of Aroclor 1254-treated rats was included in the incubation at a final concentration of 4.5%. An NADPH-regenerating system is also included to ensure a steady supply of reducing equivalents. The strains used in this study were S. typhimurium TA98 (hisD3052, rfa, uvrB/pKM10 for detection of frame-shift mutations) and S. typhimurium TA100 ([…], rfa, uvrB/pKM101 for detection of base-pair substitutions). VCE-003.2 was assessed for its mutagenic potential in the AMES reverse mutation assay. This test was performed in the absence and presence of S9 metabolic activation. […] The positive controls all behaved as expected. (PDF 568 kb)

[5] = test system: S. typhimurium TA100; test: AMES reverse mutation assay, TA100; type: cell-based
Description: as §1

[6] = male, Sprague Dawley, in vivo, iv, single i.v. 10 mg/kg
[7] = male, Sprague Dawley, in vivo, single oral 50 mg/kg in sesame oil

Compound: CCCCCC1=C(NCC)C(=O)C(CC=C(C)CCC=C(C)C)=C(O)C1=O [VCE-003.2, 2-(3,7-dimethyl-octa-2,6-dienyl)-6-ethylamino-3-hydroxy-5-pentyl-(1,4) benzoquinone]
- plasma neuroinflammation biomarkers increased by htt94Q (C-reactive protein, pentraxins 2, 3) [1]: reverted
- concentration at 24 h [2, 6]: 93.7 ± 37.7 ng/mL
- AUC(0-t) [2, 6]: 475 µg·h/mL
- Cmax [2, 6]: 83200 ng/mL
- Tmax [2, 6]: 0.08 h
- concentration at 24 h ([2]; male, Sprague Dawley, in vivo, single oral 50 mg/kg): 86.8 ± 34 ng/mL
- AUC(0-t) [2, 7]: 327 µg·h/mL
- Cmax [2, 7]: 20300 ng/mL
- Tmax [2, 7]: 8 h
- bioavailability ([2]; male, Sprague Dawley, in vivo, read-out: Bioavailability): 13.8%
- bioavailability [2]: 13.77%
- mean neurosphere size [3]: 367.90 ± 15.20 μm
- AMES Result ([4]; TA98, S9 no): Negative
- AMES Result ([4]; TA98, S9 yes): Negative
- AMES Result ([5]; TA100, S9 no): Negative
- AMES Result ([5]; TA100, S9 yes): Negative
